Experimental data as given in US20250009709A1, “PRENYLATED CHALCONE AND FLAVONOID COMPOSITIONS FOR USE IN TREATING CANCER” (INNOX CORP., priority 2021, published 2025).

Test system: pCrkl
Assay: pCrkl level in K562-IS cells
Assay type: cell-based
Conditions: 1000 nM imatinib, data not shown
Protocol: The effect of the drug substance on chronic myelogenous leukemic (CML) cells was tested using a K562 cell line model.

Cc1ccc(NC(=O)c2ccc(CN3CCN(C)CC3)cc2)cc1Nc1nccc(-c2cccnc2)n1 [imatinib]
pCrkl level in comparison with non-treated controls: did not significantly change
